Source: patent publication US20090030024A1, “THIAZOLES AS FUNGICIDES” (priority 2005, published 2009)

Experiment: logP determination by retention times (calibration with alkan-2-ones)
Details: * HPLC reversed-phase C18, 40° C., mobile phase 0.1% aqueous formic acid and acetonitrile, linear gradient 10% to 95% acetonitrile
With `CNc1nc(C)c(-c2ccnc(Nc3ccc(OC(C)=O)cc3)n2)s1` [Example 754, 4-({4-[4-methyl-2-(methylamine)-1,3-thiazol-5-yl]pyrimidin-2-yl}amino)phenylacetate] the logP was 1.73*.
In the case of `Cc1nc(N(C)C)sc1-c1ccnc(Nc2ccc(N3CCCC3=O)cc2)n1` [Example 761, 1-[4-({4-[2-(dimethylamine)-4-methyl-1,3-thiazol-5-yl]pyrimidin-2-yl}amino)phenyl]pyrrolidin-2-one], the logP is reported as 1.6*.
For `CC(=O)Nc1cccc(Nc2nccc(-c3sc(N(C)C)nc3C)n2)c1` [Example 762, N-[3-({4-[2-(dimethylamine)-4-methyl-1,3-thiazol-5-yl]pyrimidin-2-yl}amino)phenyl]acetamide], the logP was 1.42*.
For `CC(=O)c1ccc(Nc2nccc(-c3sc(N(C)C)nc3C(F)(F)F)n2)cc1` [Example 769, 1-[4-({4-[2-(dimethylamine)-4-(trifluoromethyl)-1,3-thiazol-5-yl]pyrimidin-2-yl}amino)phenyl]ethanone], the logP was 3.44*.
In the case of `CN(C)c1nc(C(F)(F)F)c(-c2ccnc(Nc3ccc(N4CCCC4=O)cc3)n2)s1` [Example 770, 1-[4-({4-[2-(dimethylamine)-4-(trifluoromethyl)-1,3-thiazol-5-yl]pyrimidin-2-yl}amino)phenyl]pyrrolidin-2-one], the logP is reported as 2.99*.
In the case of `Cc1nc(N(C)C)sc1-c1ccnc(Nc2ccc3c(c2)OC(F)(F)C(F)(F)O3)n1` [Example 774, 4-[2-(dimethylamine)-4-methyl-1,3-thiazol-5-yl]-N-(2,2,3,3-tetrafluoro-2,3-dihydro-1,4-benzodioxin-6-yl)pyrimidine-2-amine], the logP is reported as 3.6*.
For `CN(C)c1nc(C(F)(F)F)c(-c2ccnc(Nc3cccc(N4CCCC4=O)c3)n2)s1` [Example 775, 1-[3-({4-[2-(dimethylamine)-4-(trifluoromethyl)-1,3-thiazol-5-yl]pyrimidin-2-yl}amino)phenyl]pyrrolidin-2-one], the logP was 3.07*.
For `CN(C)c1nc(C(F)(F)F)c(-c2ccnc(Nc3ccc(F)cc3)n2)s1` [Example 777, 4-[2-(dimethylamine)-4-(trifluoromethyl)-1,3-thiazol-5-yl]-N-(4-fluorophenyl)pyrimidine-2-amine], the logP was 3.96*.
For `CN(C)c1nc(C(F)(F)F)c(-c2ccnc(Nc3ccc(I)cc3)n2)s1` [Example 778, 4-[2-(dimethylamine)-4-(trifluoromethyl)-1,3-thiazol-5-yl]-N-(4-iodophenyl)pyrimidine-2-amine], the logP was 4.88*.
With `CN(C)c1nc(C(F)(F)F)c(-c2ccnc(Nc3ccc4c(c3)OC(F)(F)O4)n2)s1` [Example 779, N-(2,2-difluoro-1,3-benzodioxol-5-yl)-4-[2-(dimethylamine)-4-(trifluoromethyl)-1,3-thiazol-5-yl]pyrimidine-2-amine] the logP was 4.72*.
For `CN(C)c1nc(C(F)(F)F)c(-c2ccnc(Nc3ccc4c(c3)OC(F)(F)C(F)(F)O4)n2)s1` [Example 780, 4-[2-(dimethylamine)-4-(trifluoromethyl)-1,3-thiazol-5-yl]-N-(2,2,3,3-tetrafluoro-2,3-dihydro-1,4-benzodioxin-6-yl)pyrimidine-2-amine], the logP was 5.28*.
For `Cc1nc(N(C)C)sc1-c1ccnc(Nc2cccc(N3CCCC3=O)c2)n1` [Example 782, 1-[3-({4-[2-(dimethylamine)-4-methyl-1,3-thiazol-5-yl]pyrimidin-2-yl}amino)phenyl]pyrrolidin-2-one], the logP was 1.65*.
In the case of `COc1ccc(Nc2nccc(-c3sc(N(C)C)nc3C(F)(F)F)n2)cn1` [Example 783, 4-[2-(dimethylamine)-4-(trifluoromethyl)-1,3-thiazol-5-yl]-N-(6-methoxypyridin-3-yl)pyrimidine-2-amine], the logP is reported as 3.17*.
For `COc1ccc(Nc2nccc(-c3sc(N(C)C)nc3C)n2)cn1` [Example 785, 4-[2-(dimethylamine)-4-methyl-1,3-thiazol-5-yl]-N-(6-methoxypyridin-3-yl)pyrimidine-2-amine], the logP was 1.55*.

Same assay, conditions: logP, * HPLC reversed-phase C18, 40° C., mobile phase 0.1% aqueous formic acid and acetonitrile, linear gradient 10% to 95% acetonitrile
For `COCCNc1nc(C)c(-c2ccnc(Nc3ccc(N4CCCC4=O)cc3)n2)s1` [Example 752, 1-{4-[(4-{2-[(2-methoxyethyl)amino]-4-methyl-1,3-thiazol-5-yl}pyrimidin-2-yl)amino]phenyl}pyrrolidin-2-one], the chromatographic logP was 1.51.
`CCc1nc(C)c(-c2ccnc(Nc3ccc(F)c(F)c3)n2)s1` [Example 755, N-(3,4-difluorophenyl)-4-(2-ethyl-4-methyl-1,3-thiazol-5-yl)pyrimidine-2-amine] gave a chromatographic logP of 3.44.
In the case of `Cc1nc(C)c(-c2ccnc(Nc3ccc(F)c(F)c3)n2)s1` [Example 756, N-(3,4-difluorophenyl)-4-(2,4-dimethyl-1,3-thiazol-5-yl)pyrimidine-2-amine], the chromatographic logP is reported as 2.99.
`Cc1nc(C(F)F)c(-c2ccnc(Nc3cccc(Cl)c3)n2)s1` [Example 757, N-(3-chlorophenyl)-4-[4-(difluoromethyl)-2-methyl-1,3-thiazol-5-yl]pyrimidine-2-amine] showed a chromatographic logP of 1.41.
Compound `Cc1nc(C(F)F)c(-c2ccnc(Nc3ccc(CNC(=O)OC(C)(C)C)cc3)n2)s1` [Example 758, tert-butyl-[4-({4-[4-(difluoromethyl)-2-methyl-1,3-thiazol-5-yl]pyrimidin-2-yl}amino)benzyl]carbamate] has a chromatographic logP of 3.2.
`CCc1nc(C)c(-c2ccnc(Nc3ccc(F)cc3F)n2)s1` [Example 760, N-(2,4-difluorophenyl)-4-(2-ethyl-4-methyl-1,3-thiazol-5-yl)pyrimidine-2-amine] showed a chromatographic logP of 3.27.
Work on `COCc1nc(C)c(-c2ccnc(Nc3ccc(O)cc3)n2)s1` [Example 763, 4-({4-[2-(methoxymethyl)-4-methyl-1,3-thiazol-5-yl]pyrimidin-2-yl}amino)phenol] yielded a chromatographic logP of 1.8.
Compound `COCc1nc(C)c(-c2ccnc(Nc3cc(OC)cc(OC)c3)n2)s1` [Example 764, N-(3,5-dimethoxyphenyl)-4-[2-(methoxymethyl)-4-methyl-1,3-thiazol-5-yl]pyrimidine-2-amine] has a chromatographic logP of 2.73.
In the case of `COCCCOC(=O)c1ccc(Nc2nccc(-c3sc(COC)nc3C)n2)cc1` [Example 765, 3-methoxypropyl-4-({4-[2-(methoxymethyl)-4-methyl-1,3-thiazol-5-yl]pyrimidin-2-yl}amino)benzoate], the chromatographic logP is reported as 2.63.
Work on `CCCc1nc(C)c(-c2ccnc(Nc3ccccc3)n2)s1` [Example 766, 4-(4-methyl-2-propyl-1,3-thiazol-5-yl)-N-phenylpyrimidine-2-amine] yielded a chromatographic logP of 3.49.
`CCCc1nc(C)c(-c2ccnc(Nc3cccc(C(C)=O)c3)n2)s1` [Example 767, 1-(3-{[4-(4-methyl-2-propyl-1,3-thiazol-5-yl)pyrimidin-2-yl]amino}phenyl)ethanone] gave a chromatographic logP of 3.04.
For `CCCc1nc(C)c(-c2ccnc(Nc3cc(OC)c(OC)c(OC)c3)n2)s1` [Example 768, 4-(4-methyl-2-propyl-1,3-thiazol-5-yl)-N-(3,4,5-trimethoxyphenyl)pyrimidine-2-amine], the chromatographic logP was 2.93.
With `COCC(C)Nc1nc(C)c(-c2ccnc(Nc3cccc(N4CCCC4=O)c3)n2)s1` (stereo not drawn) [Example 772, 1-{3-[(4-{2-[(2-methoxy-1-methylethyl)amino]-4-methyl-1,3-thiazol-5-yl}pyrimidin-2-yl)amino]phenyl}pyrrolidin-2-one] the chromatographic logP was 1.68.
For `COCCNc1nc(C)c(-c2ccnc(Nc3cccc([N+](=O)[O-])c3)n2)s1` [Example 781, 4-{2-[(2-methoxyethyl)amino]-4-methyl-1,3-thiazol-5-yl}-N-(3-nitrophenyl)pyrimidine-2-amine], the chromatographic logP was 1.97.
Compound `COCCNc1nc(C)c(-c2ccnc(Nc3ccc(OC)nc3)n2)s1` [Example 784, 4-{2-[(2-methoxyethyl)amino]-4-methyl-1,3-thiazol-5-yl}-N-(6-methoxypyridin-3-yl)pyrimidine-2-amine] has a chromatographic logP of 1.45.
With `COc1cc(Nc2nccc(-c3cnc(-c4ccccc4)s3)n2)cc(OC)c1OC` [Example 786, 4-(2-phenyl-1,3-thiazol-5-yl)-N-(3,4,5-trimethoxyphenyl)pyrimidine-2-amine] the chromatographic logP was 3.37.
`c1ccc(Nc2nccc(-c3cnc(-c4ccccc4)s3)n2)cc1` [Example 787, N-phenyl-4-(2-phenyl-1,3-thiazol-5-yl)pyrimidine-2-amine] showed a chromatographic logP of 3.97.
Work on `COc1ccc(Nc2nccc(-c3sc(C)nc3C)n2)cc1` [Example 788, 4-(2,4-dimethyl-1,3-thiazol-5-yl)-N-(4-methoxyphenyl)pyrimidine-2-amine] yielded a chromatographic logP of 2.34.
`CCc1nc(C)c(-c2ccnc(Nc3ccc(OC)cc3)n2)s1` [Example 789, 4-(2-ethyl-4-methyl-1,3-thiazol-5-yl)-N-(4-methoxyphenyl)pyrimidine-2-amine] gave a chromatographic logP of 2.78.
`COc1ccc(Nc2nccc(-c3sc(C)nc3C)n2)cc1O` [Example 790, 5-{[4-(2,4-dimethyl-1,3-thiazol-5-yl)pyrimidin-2-yl]amino}-2-methoxyphenol] showed a chromatographic logP of 1.79.
`CCc1nc(C)c(-c2ccnc(Nc3ccc(OC)c(O)c3)n2)s1` [Example 791, 5-{[4-(2-ethyl-4-methyl-1,3-thiazol-5-yl)pyrimidin-2-yl]amino}-2-methoxyphenol] showed a chromatographic logP of 2.09.
With `COc1cc(Nc2nccc(-c3cnc(-c4ccc(Cl)cc4)s3)n2)cc(OC)c1OC` [Example 792, 4-[2-(4-chlorophenyl)-1,3-thiazol-5-yl]-N-(3,4,5-trimethoxyphenyl)pyrimidine-2-amine] the chromatographic logP was 4.12.
Compound `Clc1ccc(-c2ncc(-c3ccnc(Nc4ccccc4)n3)s2)cc1` [Example 793, 4-[2-(4-chlorophenyl)-1,3-thiazol-5-yl]-N-phenylpyrimidine-2-amine] has a chromatographic logP of 4.85.
`CCc1nc(C)c(-c2ccnc(Nc3ccc(Cl)cc3Cl)n2)s1` [Example 794, N-(2,4-dichlorophenyl)-4-(2-ethyl-4-methyl-1,3-thiazol-5-yl)pyrimidine-2-amine] gave a chromatographic logP of 4.9.
Work on `Clc1ccc(-c2ncc(-c3ccnc(Nc4cccc(Cl)c4)n3)s2)cc1` [Example 795, N-(3-chlorophenyl)-4-[2-(4-chlorophenyl)-1,3-thiazol-5-yl]pyrimidine-2-amine] yielded a chromatographic logP of 5.57.
